Values quoted from earlier work, collected in US20030225048A1, “Sulfatase inhibiting continuous progestogen contraceptive regimens” (priority 2002, published 2003).

Conditions: humans; norelgestromin is the major metabolite

norgestimate converted to norelgestromin in vivo: ≥ 80%
SMILES: C#C[C@]1(OC(C)=O)CC[C@H]2[C@@H]3CCC4=CC(=NO)CC[C@@H]4[C@H]3CC[C@@]21CC (mixture of isomers) [norgestimate]
